Source: patent US11214803B2, “Modulators of YAP1 expression” (Ionis Pharmaceuticals, Inc., priority 2019, dated 2022)
Strand notation (5' to 3'): a small letter for the sugar, then the base; units joined by * are phosphorothioate-linked, units joined directly phosphodiester-linked; [ ] holds rarer units or linkages, { } end groups; capitals alone tell only the bases. k = constrained ethyl (cEt); [5mC] = 5-methylcytosine; d = 2'-deoxy (DNA)

Test system: Yap1 mRNA
Assay: Antisense inhibition of human Yap1 in A-431 cells by cEt gapmers, single dose (Example 2, RTS4814)
Format: cell-based
Outline: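 Free uptake, 2,000 nM, ~48 h, A-431 at 5,000 cells/well. Readout: RT-qPCR (RTS4814), RIBOGREEN-normalized, % UTC. 16-mer 3-10-3 cEt gapmers, full PS backbone, all C as 5-methylcytosine.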

[1] = Table 5, A-431 cells, 5,000 cells per well, free uptake, 2,000 nM modified oligonucleotide, approx. 48 hours, RTS4814, normalized to RIBOGREEN, Yap1 mRNA relative to untreated control cells
[2] = Table 20, Yap1 mRNA, percent of untreated control, 3-10-3 cEt gapmers targeting SEQ ID NO.: 1 and 2
[3] = Table 21, Yap1 mRNA, percent of untreated control, 3-10-3 cEt gapmers targeting SEQ ID NO.: 1 and 2
[4] = Table 33, Yap1 mRNA, percent of untreated control, 3-10-3 cEt gapmers targeting SEQ ID NO.: 1, and 2
[5] = Table 6, A-431 cells, 5,000 cells per well, free uptake, 2,000 nM modified oligonucleotide, approx. 48 hours, RTS4814, normalized to RIBOGREEN, Yap1 mRNA relative to untreated control cells
[6] = Table 19, A-431 cells, 5,000 cells per well, free uptake, 2,000 nM modified oligonucleotide, approx. 48 hours, RTS4814, normalized to RIBOGREEN, Yap1 mRNA as percent of untreated control
[7] = A-431 cells, 5,000 cells per well, free uptake, 2,000 nM modified oligonucleotide, approx. 48 hours, RTS4814, normalized to RIBOGREEN, Table 4, asterisk (*) = targets amplicon region of primer probe set
[8] = Yap1 mRNA as percent of untreated control, A-431 cells, 3-10-3 cEt gapmers targeting SEQ ID NO.: 1, and 2, Table 31
[9] = Table 32, Yap1 mRNA, percent of untreated control, 3-10-3 cEt gapmers targeting SEQ ID NO.: 1, and 2
[10] = Yap1 mRNA as percent of untreated control, A-431 cells, 3-10-3 cEt gapmers targeting SEQ ID NO.: 1, and 2, Table 30
[11] = Table 25, Yap1 mRNA as percent of untreated control, 3-10-3 cEt gapmers targeting SEQ ID NO.: 1, and 2
[12] = Table 18, A-431 cells, 5,000 cells per well, free uptake, 2,000 nM modified oligonucleotide, approx. 48 hours, RTS4814, normalized to RIBOGREEN, Yap1 mRNA as percent of untreated control

## 716350 (k[5mC]*kT*k[5mC]*dG*dG*dA*d[5mC]*d[5mC]*dT*dG*d[5mC]*dG*dG*k[5mC]*kG*k[5mC]; antisense) [Compound 716350]
[1]
  YAP1 (% UTC): 99 % UTC

## 1075110 (antisense kG*kA*k[5mC]*dT*dA*dA*dA*dA*dA*d[5mC]*dA*dT*dT*kG*kT*kG) [Compound 1075110]
[2]
  YAP1 (% UTC): 120 % UTC

## 1074183 (antisense k[5mC]*k[5mC]*kG*dG*dT*dT*dG*dA*dG*dG*d[5mC]*dG*dG*k[5mC]*kG*kG) [Compound 1074183]
[3]
  YAP1 (% UTC): 90 % UTC

## 716545 (kG*k[5mC]*kA*dT*dG*dT*dA*dT*dT*dT*dA*dA*dT*kA*kT*kG; antisense) [Compound 716545]
[1]
  YAP1 (% UTC): 91 % UTC

## 1075219 (k[5mC]*k[5mC]*kT*dT*dA*dA*d[5mC]*dA*d[5mC]*dT*dG*dG*dT*kA*kA*kG; antisense) [compound 1075219]
[4]
  YAP1 (% UTC): 117 % UTC

## 716492 (kA*kA*kA*d[5mC]*dA*d[5mC]*dA*dG*dA*dG*dG*dT*dG*k[5mC]*kT*kA; antisense) [Compound 716492]
[5]
  YAP1 (% UTC): 72 % UTC

## 1076485 (antisense kA*kA*kA*d[5mC]*dG*dA*dA*dA*d[5mC]*dG*dG*dG*dA*kA*kA*kT) [Compound 1076485]
[6]
  YAP1 (% UTC): 55 % UTC

## 1074981 (antisense kT*kT*kA*dT*dT*dG*d[5mC]*d[5mC]*dA*dG*dT*dT*d[5mC]*kT*kT*kG) [Compound 1074981]
[6]
  YAP1 (% UTC): 9 % UTC

## 716385 (kT*kT*k[5mC]*d[5mC]*d[5mC]*dA*dT*d[5mC]*d[5mC]*dA*dT*d[5mC]*dA*kG*kG*kA; antisense) [Compound 716385]
[7]
  YAP1 (% UTC): 87 % UTC

## 1075025 (antisense kA*k[5mC]*kT*dT*dA*dA*dG*dA*dA*d[5mC]*dT*d[5mC]*dA*k[5mC]*kA*k[5mC]) [compound 1075025]
[8]
  YAP1 (% UTC): 58 % UTC

## 1074117 (antisense kG*k[5mC]*kG*d[5mC]*d[5mC]*dT*dG*dA*dG*dA*dA*d[5mC]*dT*kT*kT*kT) [Compound 1074117]
[6]
  YAP1 (% UTC): 87 % UTC

## 716416 (kA*kA*kG*dG*dA*dT*dG*dT*d[5mC]*dA*dG*dA*dA*k[5mC]*kT*k[5mC]; antisense) [Compound 716416]
[1]
  YAP1 (% UTC): 45 % UTC

## 1075913 (k[5mC]*k[5mC]*k[5mC]*d[5mC]*dT*dA*dT*dA*d[5mC]*dT*dT*dT*dT*kT*kG*kA; antisense) [Compound 1075913]
Table 23, Yap1 mRNA as percent of untreated control, 3-10-3 cEt gapmers, single dose
  YAP1 (% UTC): 46 % UTC

## 1075379 (antisense kT*kA*k[5mC]*d[5mC]*dA*dA*dA*dA*d[5mC]*dT*dA*d[5mC]*dA*kA*k[5mC]*k[5mC]) [compound 1075379]
[4]
  YAP1 (% UTC): 75 % UTC

## 1076168 (k[5mC]*kA*kA*dA*dT*dT*dT*dA*d[5mC]*dA*d[5mC]*d[5mC]*dA*k[5mC]*k[5mC]*kG; antisense) [Compound 1076168]
Table 22, Yap1 mRNA as percent of untreated control, 3-10-3 cEt gapmers, single dose
  YAP1 (% UTC): 23 % UTC

## 1075090 (kG*k[5mC]*kT*dT*dA*dT*dA*dA*dT*d[5mC]*dT*dT*dT*k[5mC]*kA*kG; antisense) [compound 1075090]
[9]
  YAP1 (% UTC): 9 % UTC

## 716349 (kA*k[5mC]*kT*dT*dT*dT*dT*d[5mC]*d[5mC]*d[5mC]*dT*d[5mC]*d[5mC]*kA*kA*k[5mC]; antisense) [Compound 716349]
[7]
  YAP1 (% UTC): 78 % UTC

## 1075270 (antisense k[5mC]*kT*kT*dT*dA*dT*dT*dA*dA*d[5mC]*d[5mC]*dT*dG*kG*kA*kG) [Compound 1075270]
[2]
  YAP1 (% UTC): 18 % UTC

## 716540 (antisense kG*kA*kA*dA*dA*dG*dT*dT*dA*dT*dT*dA*d[5mC]*kA*kA*k[5mC]) [Compound 716540]
[5]
  YAP1 (% UTC): 120 % UTC

## 1075376 (antisense k[5mC]*k[5mC]*kT*dA*dA*dA*dT*dA*dT*d[5mC]*dA*dA*d[5mC]*kT*k[5mC]*k[5mC]) [compound 1075376]
[10]
  YAP1 (% UTC): 72 % UTC

## 1074507 (kA*kT*kA*dA*dT*d[5mC]*dG*dA*dG*dA*dT*dT*dT*kA*kA*kA; antisense) [Compound 1074507]
[11]
  YAP1 (% UTC): 74 % UTC

## 1074513 (kA*kG*kG*dA*dT*dA*d[5mC]*dA*dT*dT*d[5mC]*d[5mC]*dA*k[5mC]*kT*kA; antisense) [compound 1074513]
[8]
  YAP1 (% UTC): 47 % UTC

## 1075985 (kA*kT*kA*dT*d[5mC]*dG*dA*dA*dA*dA*dG*d[5mC]*dA*kA*kA*k[5mC]; antisense) [compound 1075985]
[8]
  YAP1 (% UTC): 82 % UTC

## 1074186 (antisense kG*kG*kG*d[5mC]*d[5mC]*dG*dG*dT*dT*dG*dA*dG*dG*k[5mC]*kG*kG) [Compound 1074186]
Table 24, Yap1 mRNA as percent of untreated control, 3-10-3 cEt gapmers targeting SEQ ID NO.: 1, and 2
  YAP1 (% UTC): 74 % UTC

## 1076198 (k[5mC]*kT*kA*dT*dT*dA*dT*d[5mC]*dA*dA*dG*dG*dG*kA*kA*kT; antisense) [Compound 1076198]
[2]
  YAP1 (% UTC): 81 % UTC

## 1075015 (antisense k[5mC]*kA*kG*dA*dA*dT*dA*dA*dG*dT*dA*dT*dG*kA*kT*kT) [Compound 1075015]
[3]
  YAP1 (% UTC): 55 % UTC

## 1074852 (antisense kA*kA*kT*dT*dG*dT*dT*dA*dT*dG*dA*dT*dA*kG*kG*k[5mC]) [Compound 1074852]
[12]
  YAP1 (% UTC): 4 % UTC

## 716351 (kG*kG*kT*d[5mC]*dT*dG*dG*d[5mC]*dG*dG*d[5mC]*dT*dG*k[5mC]*kG*k[5mC]; antisense) [Compound 716351]
[5]
  YAP1 (% UTC): 112 % UTC

## 1075314 (antisense kA*kA*kT*dA*dA*dA*dG*dT*d[5mC]*dT*dA*dA*dT*k[5mC]*k[5mC]*kA) [compound 1075314]
[9]
  YAP1 (% UTC): 54 % UTC

## 1075667 (antisense k[5mC]*kA*kA*dA*dT*dT*dT*dA*dG*dT*dT*dG*dT*kG*k[5mC]*kA) [compound 1075667]
[4]
  YAP1 (% UTC): 109 % UTC

## 1075659 (kA*kA*kG*dT*dA*dA*dA*dA*dA*dA*d[5mC]*dG*dG*kT*kT*kT; antisense) [Compound 1075659]
[11]
  YAP1 (% UTC): 125 % UTC

## 1075044 (antisense kA*kA*kT*dT*dA*dG*dA*d[5mC]*dT*d[5mC]*d[5mC]*d[5mC]*d[5mC]*k[5mC]*kA*kA) [Compound 1075044]
[12]
  YAP1 (% UTC): 58 % UTC

## 1074180 (antisense k[5mC]*k[5mC]*kG*dG*dG*dA*dT*d[5mC]*d[5mC]*dA*dT*dG*dG*k[5mC]*kT*kT) [Compound 1074180]
[12]
  YAP1 (% UTC): 86 % UTC

## 1074544 (k[5mC]*kT*k[5mC]*d[5mC]*d[5mC]*d[5mC]*dT*dA*dG*dG*d[5mC]*dA*d[5mC]*kT*kA*kT; antisense) [compound 1074544]
[10]
  YAP1 (% UTC): 34 % UTC

## 1074213 (antisense kG*kA*kG*dT*d[5mC]*dG*dG*dG*d[5mC]*dA*dG*d[5mC]*dT*kT*k[5mC]*k[5mC]) [Compound 1074213]
[6]
  YAP1 (% UTC): 55 % UTC

## 1076071 (kT*kA*kT*dT*dA*dG*dT*dA*dA*dT*dG*d[5mC]*dA*k[5mC]*kA*kG; antisense) [Compound 1076071]
[3]
  YAP1 (% UTC): 14 % UTC

## 1076402 (antisense k[5mC]*kG*kT*dA*dA*dT*dT*dA*dT*dT*dT*dT*dT*kG*k[5mC]*kT) [compound 1076402]
[9]
  YAP1 (% UTC): 38 % UTC
